Data reported in patent US9156826B2, “Asymmetrical reversible neuromuscular blocking agents of ultra-short, short, or intermediate duration” (Cornell University, priority 2012, dated 2015).
“Also recorded” adds a separate entry of the source. Read-outs that look alike come from different tables or passages of the source.

How the values were obtained:
[1] = system: twitch responses of the extensor digitorum of the foot (peroneal nerve stimulation); assay: Neuromuscular blocking potency and duration: twitch blockade dose-response in anesthetized rhesus monkeys; format: in vivo, rhesus monkey (Macaca mulatta); details: for ED95: Macaca mulatta; for Duration (min ± SD): at the actual dose administered, injection to recovery of twitch to 95% of control
Experimental: (§1) Selected NMBA compounds were tested as described in PCT/US2010/000796 application by an inventor herein, published as WO2010/107488, which is incorporated by reference, see pages 66-78. Dose-response curves for twitch blockade by test compounds were generated as described. […] Successive doses were separated by at least three estimated half lives beyond complete recovery of the previous dose to TOF of 110-120%, which is normal for these monkeys. Only the first one or two doses yielding 5 to 99% blockade were included from any single experiment for computation of dose-response data. Comparative studies of spontaneous recovery versus antagonism/reversal were done at least 3 estimated half-lives following dose-response studies. ED50 and ED95 were computed from the regression of log dose vs. the logit of percentage blockade of twitch.
Experiments were approved by the Institutional Animal Care and Use Committee of Weill Medical College of Cornell University (New York, N.Y.) and of Albany Medical College (Albany, N.Y.), where the studies were conducted. A colony of 10 adult male monkeys (Macaca mulatta) weighing 8-18 kg was studied at ˜6 week intervals. Animals were housed and cared for in accordance with the Guide for Care and Use of Laboratory Animals (National Research Council, Washington, D.C.). They were fed a standard Old World monkey diet, enriched with fruits and vegetables, and other dietary novelties and were followed throughout the study to verify normal health by physical examination, body weight, and clinical laboratory studies (Complete Blood Count, Blood Urea Nitrogen and creatinine, and liver function tests).
(§2) On the day of each study, monkeys received ketamine (7-10 mg/kg i.m.) followed by tracheal intubation under topical anesthesia with 4% lidocaine. Ventilation was controlled at 10 mL/kg and 20 breaths/min with isoflurane (1.0-2.0%) and N2O/O2 (2:1 mixture). Ringers lactate was administered at ˜10 ml kg^−1 h^−1. Arterial pressure was monitored from a femoral, superficial tibial, or radial (22 gauge) cannula. Heart rate was measured by tachograph from the arterial pulse wave. Core temperature was kept at 36.5-38.0° C. by warming blankets. Electrocardiogram and pulse oximetry were monitored continuously.
(§3) Needle electrodes (25 gauge) transmitting square-wave pulses of 0.2 msec duration at supramaximal voltage which were generated by a Grass S-88 stimulator (Grass Instruments, Quincy, Mass.) were placed at the peroneal nerve at the knee to elicit twitch responses of the extensor digitorum of the foot at 0.15 Hz. A small slip (10-20%) of the tendon was dissected free under sterile technique and tied to a Grass FT 10 force transducer (Grass Instruments, Quincy, Mass.) at a baseline tension of 50 gm. Train-of four stimulation (TOF, 2 Hz for 2 sec) was interposed at appropriate points, especially 1-2 min prior to NMBA dosing and following recovery of twitch to 95% of baseline, where TOF was subsequently evaluated every 1-2 min.
(§4) Recordings of circulatory and neuromuscular data were made on a Grass 7B polygraph (Grass Instruments). A baseline period of 15-20 min was allowed for stabilization of recordings prior to dosing.^2
Dose-response curves for twitch blockade by gantacurium, CW 002, CW 011, cisatracurium, CW002-Cys, NB 938-69, NB 1064-81, NB 802-17 (CW 001), NB 832-65, and NB 1163-79, structures of which are all shown above, were generated as follows. […] Successive doses were separated by at least three estimated half lives beyond complete recovery of the previous dose to TOF of 110-120%, which is normal for these monkeys. Only the first one or two doses yielding 5 to 99% blockade were included from any single experiment for computation of dose-response data.
ED 50 and ED 95 were computed from the regression of log dose vs. the logit of percentage blockade of twitch.

[2] = system: twitch responses of the extensor digitorum of the foot (peroneal nerve stimulation); assay: Spontaneous recovery versus reversal of neuromuscular blockade by cysteine in monkeys; format: in vivo, rhesus monkey (Macaca mulatta); details: for Reversibility (Cysteine): Table 1, reversal of the blockade by cysteine; for Total Duration (Spontaneous Recovery): injection to 95% twitch height
Experimental: as §1, §2, §3
Comparative studies of spontaneous recovery versus antagonism/reversal were done at least 3 estimated half-lives following dose-response studies.

[3] = Properties of cysteine solutions (solubility, natural pH); format: physicochemical; details: cysteine in its base form
Experimental: To accomplish the reversal of a neuromuscular blockade generated by one of these agents, cysteine is administered by intravenous injection. However, the natural pH of cysteine hydrochloride solutions at concentrations of 50 mg/ml or more in aqueous solution (e.g., 0.9% saline) is very low, ranging from about pH 0.8 to about pH 1.0. Moreover, cysteine is not soluble at concentrations greater than 50 mg/ml in its base form, but higher concentrations of cysteine are more conveniently administered for reversal of neuromuscular blockades. For example, bolus administration of volumes greater than 50 ml over a time period of 5-10 sec is generally not convenient in an operating room. Therefore, to be administered to patients, cysteine solutions have been developed that have higher concentrations and higher pH values as described herein.

[4] = system: blood pressure and heart rate; assay: Circulatory effects (arterial pressure, heart rate) during neuromuscular blockade in rhesus monkeys; format: in vivo, rhesus monkey (Macaca mulatta); details: rhesus monkey
Experimental: Thus, the undesired side effect of tachycardia is not induced by a compound of the invention at a dose effective to induce NMB.
as §2, §4

[5] = Table 1, calculated dose for 95% block of twitch, monkeys, read-out: ED 95
[6] = Table 3, dose 0.064 ± 0.010 (gantacurium) or 0.060 ± 0.012 mg/kg (CW1759-50)

Row | SMILES | ED95 [1] [mg/kg] | Duration (min ± SD) ([1]; Table 1) [min] | Reversibility (Cysteine) [2] | ED95 [1, 5] [mg/kg] | further results
1 | COc1ccc(C[C@@H]2c3cc(OC)c(OC)cc3CC[N@@+]2(C)CCCOC(=O)/C=C\C(=O)OCCC[N+]2(Cc3ccc4c(c3)OCCO4)CCOCC2)cc1OC [Compound 1521-78] | 0.05 | 12.1 ± 2.1 | Yes | – | –
2 | COc1ccc(C[C@@H]2c3cc(OC)c(OC)cc3CC[N@@+]2(C)CCCOC(=O)/C(Cl)=C/C(=O)OCCC[N+]2(Cc3ccc(OC)c(OC)c3)CCOCC2)cc1OC [Compound 1521-74] | 0.16 | 4.3 ± 1.1 | Yes | – | –
3 | COc1cc2c(cc1OC)[C@@H](Cc1cc(OC)c(OC)c(OC)c1)[N@+](C)(CCCOC(=O)/C(Cl)=C/C(=O)OCCC[N+]1(Cc3cc(OC)c(OC)c(OC)c3)CCCC1)CC2 [Compound 1326-69] | – | 4.5 ± 1.8 | Yes | 0.11 | –
4 | N[C@@H](CS)C(=O)O [cysteine] | – | – | – | – | solubility [3]: ≤ 50 mg/mL
5 | COc1ccc(C[C@@H]2c3cc(OC)c(OC)cc3CC[N@@+]2(C)CCCOC(=O)/C=C\C(=O)OCCC[N+]2(Cc3ccc(OC)c(OC)c3)CCCC2)cc1OC [Compound 1390-80] | – | 9.0 ± 2.1 | Yes | 0.07 | –
6 | COc1ccc(C[N+]2(CCCOC(=O)/C=C(\Cl)C(=O)OCCC[N@+]3(C)CCc4cc(OC)c(OC)cc4[C@H]3Cc3cc(OC)c(OC)c(OC)c3)CCOCC2)cc1OC [Compound 1566-01] | 0.61 | 8 | Yes | – | –
7 | COc1ccc(C[C@@H]2c3cc(OC)c(OC)cc3CC[N@@+]2(C)CCCOC(=O)/C=C\C(=O)OCCC[N+]2(Cc3ccc(OC)c(OC)c3)CCOCC2)cc1 [Compound 1726-01] | – | 7.6 ± 2.4 | Yes | 0.05 | duration of neuromuscular blockade (spontaneous recovery, FIG. 2) ([1]; 0.06 mg/kg dose, rhesus monkey): about six; Blockade (%) [1, 6]: 99.3 ± 0.2%; Onset [1, 6]: 94.0 ± 8.7 s; Total Duration [1, 6]: 8.2 ± 1.5 min; potency compared with gantacurium (% blockade, time to onset, total duration of effect) ([1]; Table 3 comparison): comparable to gantacurium in potency; ED95 (statistical analysis of dose-response study, FIG. 1) ([1]; rhesus monkeys): 0.054 ± 0.0022 mg/kg; spontaneous reversal of blockade time (FIG. 4) ([2]; 100% block): more than 10 minutes; cysteine-induced reversal time (FIG. 4) ([2]; 100% block, 30 mg/kg L-cysteine hydrochloride): ≤ 2 min; 5-95% Interval with L-Cysteine ([2]; L-cysteine 30 mg/kg at +1 min following bolus 0.2 mg/kg (4x ED95), Point A): 1.9 ± 0.2; 5-95% Interval with L-Cysteine ([2]; L-cysteine 30 mg/kg at +1 min following discontinuation of infusion (30-120 mins), Point B): 2.1 ± 0.2; 5-95% Interval (Spontaneous Recovery) ([2]; bolus 0.2 mg/kg (4x ED95), Point A): 6.2 ± 0.2; Total Duration (Spontaneous Recovery) ([2]; bolus 0.2 mg/kg (4x ED95)): 11.9 ± 0.3 min; 5-95% Interval (Spontaneous Recovery) ([2]; bolus 0.05-0.06 mg/kg (ED99)): 5.2 ± 0.2; Total Duration (Spontaneous Recovery) ([2]; bolus 0.05-0.06 mg/kg (ED99)): 7.3 ± 0.3 min; dependence of recovery (5-95% twitch recovery interval) on dosage or duration of infusion (FIG. 5) ([2]; bolus or infusion, spontaneous or L-cysteine induced recovery, listed as 1759-50): not significantly effected by the previous duration of infusion; also recorded: unaffected by dosage or duration of infusion; 5-95% Interval (Spontaneous Recovery) ([2]; continuous infusions, 30-120 mins, Point B): 5.2 ± 0.3; spontaneous reversal time (FIG. 3) ([2]; dose of 4x the ED95 dose): about 11 minutes; time to termination of blockade following L-cysteine administration (FIG. 3) ([2]; dose of 4x the ED95 dose, 30 mg/kg L-cysteine hydrochloride): about two; effect on blood pressure ([4]; 0.06 mg/kg dose, FIG. 2): no apparent effect on blood pressure; effect on heart rate / tachycardia ([4]; 0.06 mg/kg, dose effective to induce NMB): no apparent effect on heart rate
8 | COc1ccc(C[N+]2(CCCOC(=O)/C=C\C(=O)OCCC[N@+]3(C)CCc4cc(OC)c(OC)cc4[C@H]3Cc3ccc(OC)c(OC)c3)CCCC2)cc1 [Compound 1521-28] | 0.335 | 6.5 | Yes | – | –
